These results are taken from ChEMBL document CHEMBL1201862, “PubChem BioAssay data set” (2004).

The source made the active and inactive calls.

Experiment [1] deals with T1, Mannose-6-phosphate isomerase (Homo sapiens, UniProt P34949).
T1 sequence (P34949 whole entry): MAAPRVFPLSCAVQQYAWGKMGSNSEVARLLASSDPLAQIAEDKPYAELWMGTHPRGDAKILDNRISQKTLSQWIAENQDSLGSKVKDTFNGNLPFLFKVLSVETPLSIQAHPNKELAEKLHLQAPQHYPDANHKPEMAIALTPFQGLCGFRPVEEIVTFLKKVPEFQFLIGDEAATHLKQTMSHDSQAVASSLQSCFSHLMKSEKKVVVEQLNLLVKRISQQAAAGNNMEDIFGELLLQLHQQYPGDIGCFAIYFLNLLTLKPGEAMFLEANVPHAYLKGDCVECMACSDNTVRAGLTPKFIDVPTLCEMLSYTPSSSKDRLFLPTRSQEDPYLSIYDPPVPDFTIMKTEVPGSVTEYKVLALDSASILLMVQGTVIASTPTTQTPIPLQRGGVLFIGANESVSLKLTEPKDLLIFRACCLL
The experiment is described as follows: human PMI inhibitors, high substrate, primary screen, biochemical, fluorescence intensity, high mannose 6-phosphate (AID 1220).

Experiment [2] is described as follows: inhibitors of SNCA 5'UTR-driven reporter translation, confirmation, H4 neuroglioma cells, luminescence (AID 1988). Type of experiment: functional, cell-based.
The target of another experiment is SUMO-activating enzyme (Homo sapiens, UniProt Q9UBT2). The experiment in a line: inhibitors of in vitro SUMOylation cascade, primary screen, biochemical, HTRF, uHTS (AID 2006). The class given is protein-complex assay. (In general: TR-FRET usually uses a lanthanide donor and a delayed reading to cut background.)
Sequence of SUMO-activating enzyme (Q9UBE0 whole entry): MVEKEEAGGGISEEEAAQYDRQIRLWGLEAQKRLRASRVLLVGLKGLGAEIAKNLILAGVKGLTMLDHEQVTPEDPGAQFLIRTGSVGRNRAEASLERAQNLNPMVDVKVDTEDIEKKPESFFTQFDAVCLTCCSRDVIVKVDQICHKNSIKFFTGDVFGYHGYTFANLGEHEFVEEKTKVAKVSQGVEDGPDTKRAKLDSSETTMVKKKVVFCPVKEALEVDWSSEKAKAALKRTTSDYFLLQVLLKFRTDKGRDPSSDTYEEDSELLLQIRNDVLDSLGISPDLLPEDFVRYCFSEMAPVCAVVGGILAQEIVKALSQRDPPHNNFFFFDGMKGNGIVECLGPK
Sequence of SUMO-activating enzyme (Q9UBT2 whole entry): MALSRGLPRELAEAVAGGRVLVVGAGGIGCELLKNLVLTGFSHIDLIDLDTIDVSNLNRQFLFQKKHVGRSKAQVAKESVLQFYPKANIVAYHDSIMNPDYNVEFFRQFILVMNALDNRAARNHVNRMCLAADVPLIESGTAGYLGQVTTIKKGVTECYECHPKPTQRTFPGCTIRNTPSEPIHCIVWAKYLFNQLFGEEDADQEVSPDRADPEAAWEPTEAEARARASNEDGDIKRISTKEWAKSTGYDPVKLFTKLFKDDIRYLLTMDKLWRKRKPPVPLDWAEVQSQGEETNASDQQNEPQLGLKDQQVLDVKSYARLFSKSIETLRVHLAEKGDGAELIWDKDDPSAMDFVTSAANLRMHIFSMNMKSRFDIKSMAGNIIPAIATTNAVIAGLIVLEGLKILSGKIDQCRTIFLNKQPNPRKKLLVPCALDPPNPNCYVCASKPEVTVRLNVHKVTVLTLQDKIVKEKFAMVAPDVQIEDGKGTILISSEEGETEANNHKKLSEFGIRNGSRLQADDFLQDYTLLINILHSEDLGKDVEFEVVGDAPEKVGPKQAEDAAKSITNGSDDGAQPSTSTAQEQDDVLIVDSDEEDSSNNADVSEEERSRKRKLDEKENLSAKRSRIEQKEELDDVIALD
The target of another experiment is Genome polyprotein (dengue virus type 2, UniProt P29990). The experiment in a line: Dengue-2 NS5 methyltransferase inhibitors, primary screen, biochemical, confirmation dose response (AID 588689). Type of experiment: functional.
Experiment [3] concerns the target Serine/threonine-protein phosphatase (Homo sapiens, UniProt Q9BPW0). The experiment in a line: PP5 phosphatase inhibitors, dose response, biochemical, fluorescence (AID 2395).
The next experiment concerns the target T2, Caspase-7 (Homo sapiens, UniProt P55210).
T2 sequence (P55210 whole entry): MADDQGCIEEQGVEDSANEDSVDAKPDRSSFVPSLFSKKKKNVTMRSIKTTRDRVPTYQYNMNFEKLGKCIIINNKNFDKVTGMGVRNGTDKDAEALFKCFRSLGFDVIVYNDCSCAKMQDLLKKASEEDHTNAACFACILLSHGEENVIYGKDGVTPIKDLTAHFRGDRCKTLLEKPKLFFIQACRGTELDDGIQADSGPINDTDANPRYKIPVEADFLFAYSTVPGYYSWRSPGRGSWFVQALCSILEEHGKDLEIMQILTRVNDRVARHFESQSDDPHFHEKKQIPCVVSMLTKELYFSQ
The experiment in a line: procaspase-7 activators, dose response, counter-screen for procaspase-3 activator project, biochemical, absorbance (AID 489013). In general terms: The purpose of a counterscreen is to sort out artefacts and off-target activity.

Experiment [4] deals with Casein kinase I isoform gamma-1 (Homo sapiens, UniProt Q9HCP0). The class given is functional.
Experiment [5] has as its target Proto-oncogene tyrosine-protein kinase receptor Ret (Homo sapiens, UniProt P07949). The class given is functional.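 Note: measured within a kinome-wide profiling panel, RET as the panel member.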
Experiment [6] has as its target Calcium/calmodulin-dependent protein kinase type 1 (Homo sapiens, UniProt Q14012). The class given is functional.
Experiment [7] has as its target Serine/threonine-protein kinase PLK3 (Homo sapiens, UniProt Q9H4B4). Type of experiment: functional.
Experiment [8] has as its target Serine/threonine-protein kinase pim-3 (Homo sapiens, UniProt Q86V86). Type of experiment: functional.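 Note: value obtained as one member of a broad kinase panel profiling effort.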
The target in experiment [9] is Vascular endothelial growth factor receptor 1 (Homo sapiens, UniProt P17948). Type of experiment: functional.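 Note: measured within a kinome-wide profiling panel, FLT1 as the panel member.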
Experiment [10] has as its target Macrophage colony-stimulating factor 1 receptor (Homo sapiens, UniProt P07333). The class given is functional.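 Note: value comes from the Navigating the Kinome screening panel, CSF1R member.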
Experiment [11] concerns the target Serine/threonine-protein kinase TBK1 (Homo sapiens, UniProt Q9UHD2). The experiment in a line: Navigating the Kinome. Panel member name: TBK1. Type of experiment: functional.
For experiment [12], the target named is Macrophage-stimulating protein receptor (Homo sapiens, UniProt Q04912). The experiment is described as follows: Navigating the Kinome. Panel member name: MST1R. The class given is functional.
The target of experiment [13] is Receptor-type tyrosine-protein kinase FLT3 (Homo sapiens, UniProt P36888). Type of experiment: functional.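 Note: FLT3 was tested as one member of a kinome-wide kinase panel.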
For experiment [14], the target named is Tyrosine-protein kinase FRK (Homo sapiens, UniProt P42685). Type of experiment: functional.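 Note: FRK tested as one member of a kinome panel.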
The target of experiment [15] is Hepatocyte growth factor receptor (Homo sapiens, UniProt P08581). Type of experiment: functional.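 Note: kinase panel profiling across the kinome, with MET as the panel member.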
Sequence of Hepatocyte growth factor receptor (P08581 whole entry): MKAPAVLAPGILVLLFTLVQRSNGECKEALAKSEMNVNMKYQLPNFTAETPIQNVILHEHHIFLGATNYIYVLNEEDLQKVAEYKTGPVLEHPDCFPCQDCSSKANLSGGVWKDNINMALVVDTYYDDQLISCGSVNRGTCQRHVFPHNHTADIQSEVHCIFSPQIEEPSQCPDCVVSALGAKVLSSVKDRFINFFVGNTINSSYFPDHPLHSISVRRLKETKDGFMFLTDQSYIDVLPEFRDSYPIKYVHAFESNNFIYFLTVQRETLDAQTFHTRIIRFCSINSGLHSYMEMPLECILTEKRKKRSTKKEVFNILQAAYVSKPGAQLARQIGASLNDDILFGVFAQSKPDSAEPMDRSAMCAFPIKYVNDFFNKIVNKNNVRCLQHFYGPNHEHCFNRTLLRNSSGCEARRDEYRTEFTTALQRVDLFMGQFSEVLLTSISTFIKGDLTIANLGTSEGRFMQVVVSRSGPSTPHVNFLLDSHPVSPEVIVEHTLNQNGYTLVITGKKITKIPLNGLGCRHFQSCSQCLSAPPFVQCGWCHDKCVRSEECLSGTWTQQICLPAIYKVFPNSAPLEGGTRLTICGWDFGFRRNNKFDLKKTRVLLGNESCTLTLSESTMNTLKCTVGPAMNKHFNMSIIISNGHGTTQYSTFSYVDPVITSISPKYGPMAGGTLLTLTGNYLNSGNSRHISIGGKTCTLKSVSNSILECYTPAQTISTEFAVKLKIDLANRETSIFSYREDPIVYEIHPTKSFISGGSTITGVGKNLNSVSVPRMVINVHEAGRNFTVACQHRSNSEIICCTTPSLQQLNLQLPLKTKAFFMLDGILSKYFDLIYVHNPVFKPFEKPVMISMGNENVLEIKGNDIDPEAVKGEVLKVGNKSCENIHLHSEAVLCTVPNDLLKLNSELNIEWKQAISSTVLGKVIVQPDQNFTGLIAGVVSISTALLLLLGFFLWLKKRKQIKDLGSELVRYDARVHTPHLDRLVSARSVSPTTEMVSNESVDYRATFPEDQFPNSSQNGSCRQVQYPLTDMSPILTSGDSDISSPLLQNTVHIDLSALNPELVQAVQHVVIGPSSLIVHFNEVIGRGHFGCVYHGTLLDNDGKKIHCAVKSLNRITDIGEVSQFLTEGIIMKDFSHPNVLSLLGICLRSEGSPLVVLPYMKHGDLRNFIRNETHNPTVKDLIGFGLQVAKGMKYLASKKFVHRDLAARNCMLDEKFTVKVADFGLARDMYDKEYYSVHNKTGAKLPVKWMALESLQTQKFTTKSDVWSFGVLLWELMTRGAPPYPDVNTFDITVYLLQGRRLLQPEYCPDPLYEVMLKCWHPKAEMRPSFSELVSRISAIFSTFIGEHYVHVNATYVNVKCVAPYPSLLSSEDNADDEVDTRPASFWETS
Experiment [16] addresses Homeodomain-interacting protein kinase 2 (Homo sapiens, UniProt Q9H2X6). The class given is functional.
Experiment [17] concerns the target Mitogen-activated protein kinase kinase kinase 20 (Homo sapiens, UniProt Q9NYL2). The class given is functional.
Experiment [18] deals with Vascular endothelial growth factor receptor 2 (Homo sapiens, UniProt P35968). Type of experiment: functional.
Sequence of Vascular endothelial growth factor receptor 2 (P35968 whole entry): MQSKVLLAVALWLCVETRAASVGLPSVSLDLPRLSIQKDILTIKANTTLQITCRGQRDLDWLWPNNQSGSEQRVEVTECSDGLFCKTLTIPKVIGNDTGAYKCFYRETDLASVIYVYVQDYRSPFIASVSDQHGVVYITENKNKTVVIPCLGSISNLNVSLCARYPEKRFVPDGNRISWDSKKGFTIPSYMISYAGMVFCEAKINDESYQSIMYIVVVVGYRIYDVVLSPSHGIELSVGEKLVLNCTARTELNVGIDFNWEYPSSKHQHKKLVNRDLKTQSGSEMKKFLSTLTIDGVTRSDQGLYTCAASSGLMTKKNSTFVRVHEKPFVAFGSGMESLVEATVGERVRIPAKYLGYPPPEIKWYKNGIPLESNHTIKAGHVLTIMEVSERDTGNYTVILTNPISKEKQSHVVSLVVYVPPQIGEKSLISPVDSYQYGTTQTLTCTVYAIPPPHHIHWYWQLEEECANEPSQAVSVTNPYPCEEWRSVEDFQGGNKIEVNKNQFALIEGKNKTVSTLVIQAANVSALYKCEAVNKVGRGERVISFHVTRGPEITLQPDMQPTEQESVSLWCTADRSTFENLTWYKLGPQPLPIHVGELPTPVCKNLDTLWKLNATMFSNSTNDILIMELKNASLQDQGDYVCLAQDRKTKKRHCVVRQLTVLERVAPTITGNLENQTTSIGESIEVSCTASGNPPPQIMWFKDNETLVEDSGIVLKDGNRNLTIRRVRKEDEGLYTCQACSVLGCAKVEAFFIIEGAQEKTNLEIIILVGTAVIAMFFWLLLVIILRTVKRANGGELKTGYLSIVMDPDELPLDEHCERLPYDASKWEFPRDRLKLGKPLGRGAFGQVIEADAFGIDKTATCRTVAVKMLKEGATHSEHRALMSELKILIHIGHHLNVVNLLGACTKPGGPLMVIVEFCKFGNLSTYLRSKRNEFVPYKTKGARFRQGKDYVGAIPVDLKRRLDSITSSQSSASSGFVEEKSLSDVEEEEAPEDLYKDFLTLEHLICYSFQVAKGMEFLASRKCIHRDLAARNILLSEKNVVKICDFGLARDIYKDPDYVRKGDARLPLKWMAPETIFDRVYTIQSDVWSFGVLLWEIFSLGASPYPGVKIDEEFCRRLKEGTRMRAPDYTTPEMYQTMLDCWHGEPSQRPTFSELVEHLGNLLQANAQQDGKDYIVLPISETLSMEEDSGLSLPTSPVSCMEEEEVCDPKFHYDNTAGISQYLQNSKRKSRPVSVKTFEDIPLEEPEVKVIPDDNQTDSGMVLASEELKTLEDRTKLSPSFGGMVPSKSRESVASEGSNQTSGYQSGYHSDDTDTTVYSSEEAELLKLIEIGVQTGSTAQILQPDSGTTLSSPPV
The target in experiment [19] is Serine/threonine-protein kinase BRSK1 (Homo sapiens, UniProt Q8TDC3). The class given is functional.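 Note: measured within a kinome-wide kinase panel, with the target listed as KIAA1811.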
A further experiment has as its target Ephrin type-A receptor 2 (Homo sapiens, UniProt P29317). The class given is functional.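 Note: EPHA2 tested as one member of a kinome-wide kinase panel.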
Experiment [20] addresses Tyrosine-protein kinase Blk (Homo sapiens, UniProt P51451). Type of experiment: functional.
Experiment [21] concerns the target Inhibitor of nuclear factor kappa-B kinase subunit epsilon (Homo sapiens, UniProt Q14164). The experiment in a line: Navigating the Kinome. Panel member name: IKBKE. Type of experiment: functional.
In experiment [22] the target is Receptor tyrosine-protein kinase erbB-4 (Homo sapiens, UniProt Q15303). Type of experiment: functional.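 Note: ERBB4 member of a kinome-wide kinase profiling panel.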
In experiment [23] the target is Serine/threonine-protein kinase Chk2 (Homo sapiens, UniProt O96017). Type of experiment: functional.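 Note: CHEK2 entry within a kinome-wide screening panel.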
In experiment [24] the target is RAC-gamma serine/threonine-protein kinase (Homo sapiens, UniProt Q9Y243). The class given is functional.
Sequence of RAC-gamma serine/threonine-protein kinase (Q9Y243 whole entry): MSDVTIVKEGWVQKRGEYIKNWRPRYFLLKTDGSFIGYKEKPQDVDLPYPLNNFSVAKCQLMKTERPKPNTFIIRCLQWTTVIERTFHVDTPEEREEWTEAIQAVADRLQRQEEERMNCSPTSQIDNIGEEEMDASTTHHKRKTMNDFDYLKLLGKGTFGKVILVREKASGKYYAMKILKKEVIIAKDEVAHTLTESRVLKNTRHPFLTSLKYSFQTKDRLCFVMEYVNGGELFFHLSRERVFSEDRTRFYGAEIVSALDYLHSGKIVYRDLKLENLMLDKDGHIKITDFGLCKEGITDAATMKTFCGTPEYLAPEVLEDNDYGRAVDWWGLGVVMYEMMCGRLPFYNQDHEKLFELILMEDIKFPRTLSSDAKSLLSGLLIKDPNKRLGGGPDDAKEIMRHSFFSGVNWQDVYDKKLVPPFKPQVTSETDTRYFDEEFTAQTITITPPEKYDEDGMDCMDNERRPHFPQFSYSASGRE
Experiment [25] deals with MAP kinase-interacting serine/threonine-protein kinase 2 (Homo sapiens, UniProt Q9HBH9). The class given is functional.
The target of experiment [26] is Dual specificity protein kinase CLK2 (Homo sapiens, UniProt P49760). The class given is functional.
Experiment [27] deals with Rho-associated protein kinase 1 (Homo sapiens, UniProt Q13464). The class given is functional.
In experiment [28] the target is BDNF/NT-3 growth factors receptor (Homo sapiens, UniProt Q16620). The class given is functional.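 Note: NTRK2 measured as one member of a broad kinome-wide kinase profiling panel.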
Experiment [29] has as its target Maternal embryonic leucine zipper kinase (Homo sapiens, UniProt Q14680). The class given is functional.
Another experiment deals with Aurora kinase A (Homo sapiens, UniProt O14965). Type of experiment: functional.
Sequence of Aurora kinase A (O14965 whole entry): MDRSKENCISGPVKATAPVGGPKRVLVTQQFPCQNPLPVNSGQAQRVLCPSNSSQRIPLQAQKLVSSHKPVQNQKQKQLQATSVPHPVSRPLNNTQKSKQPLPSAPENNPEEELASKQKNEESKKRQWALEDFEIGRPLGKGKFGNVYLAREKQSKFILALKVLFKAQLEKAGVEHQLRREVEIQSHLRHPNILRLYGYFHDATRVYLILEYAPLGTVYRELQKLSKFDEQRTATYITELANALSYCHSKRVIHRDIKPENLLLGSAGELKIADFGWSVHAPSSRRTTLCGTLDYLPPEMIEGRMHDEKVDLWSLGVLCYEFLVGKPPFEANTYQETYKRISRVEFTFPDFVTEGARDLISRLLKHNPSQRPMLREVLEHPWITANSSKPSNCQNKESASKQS
For experiment [30], the target named is Serine/threonine-protein kinase D3 (Homo sapiens, UniProt O94806). The class given is functional.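 Note: determined within a kinase panel screen, with PRKCN as the panel member.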

Sequence of Calcium/calmodulin-dependent protein kinase type 1 (Q14012 whole entry): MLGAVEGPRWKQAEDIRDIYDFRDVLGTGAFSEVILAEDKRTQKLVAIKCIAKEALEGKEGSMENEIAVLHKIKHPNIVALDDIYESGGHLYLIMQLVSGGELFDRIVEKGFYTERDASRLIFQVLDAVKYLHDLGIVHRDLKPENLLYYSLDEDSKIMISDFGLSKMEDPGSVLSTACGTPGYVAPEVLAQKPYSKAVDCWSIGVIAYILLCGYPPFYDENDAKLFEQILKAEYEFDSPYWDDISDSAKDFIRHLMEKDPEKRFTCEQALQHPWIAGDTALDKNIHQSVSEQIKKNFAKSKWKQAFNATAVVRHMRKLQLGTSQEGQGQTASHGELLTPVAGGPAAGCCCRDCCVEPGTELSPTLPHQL

Take `CC(C)N(C(=O)Nc1ccc2nsnc2c1)C(C)C`: the IC50 in experiment [1] is > 50 µM (not active).
`NS(=O)(=O)c1ccc(NC2=CC(=O)C(=O)c3ccccc32)cc1`: the EC50 in experiment [2] is 8.45 µM (active). For the same compound, the half-maximal inhibitory concentration (IC50) is 9.54 µM (active) on SUMO-activating enzyme, 39 µM (active) at Genome polyprotein and > 67 µM (not active) in [3].
For `O=C(N/N=C/c1ccc(O)cc1O)c1ccc(CN2C(=O)c3cccc4cccc2c34)cc1`, on Caspase-7, the EC50 was > 85.3 µM (inactive).
For the compound `Clc1cc(-c2c[nH]c3ncccc23)nc(NC2CCCCC2)n1`, the Ki is 126 nM (active) in [4]; > 2 µM (inactive) in [5]; > 6.31 µM (inactive) in experiment [6]; > 7.94 µM (inactive) in experiment [7]; > 7.94 µM (inactive) in experiment [8]; 398 nM (active) in experiment [9]. The Ki in experiment [10] was > 1.58 µM (inactive); in experiment [11], > 3.16 µM (inactive); in experiment [12], > 3.98 µM (inactive); in experiment [13], > 1 µM (inactive); in experiment [14] it was > 2.51 µM (inactive); in [15], > 3.16 µM (inactive). Besides, the Ki in [16] is 100 nM (active); in experiment [17], > 7.94 µM (inactive); in [18] it was 2.51 µM (active); in experiment [19] it was > 10 µM (inactive); at Ephrin type-A receptor 2, > 3.16 µM (inactive); in experiment [20], > 1.58 µM (inactive). The Ki is > 3.16 µM (inactive) in [21]; > 3.98 µM (inactive) in experiment [22]; > 1.58 µM (inactive) in experiment [23]; > 10 µM (inactive) in experiment [24]; 79.4 nM (active) in experiment [25]; > 1.26 µM (inactive) in experiment [26]. Further, the Ki in [27] was 15.8 nM (active); in [28], 2 µM (active); in experiment [29], 316 nM (active); on Aurora kinase A, > 1.58 µM (inactive); in experiment [30], > 2 µM (inactive).

In general, IC50 refers to the concentration at which inhibition is half-maximal. One may read the EC50 as the midpoint of the concentration-response curve. The Ki is a dissociation constant, usually derived from enzyme kinetics or from competition with a known ligand.
